In ChEMBL document CHEMBL1158840, “Cytotoxic prenylflavonoids from Artocarpus elasticus” (2005):
Values after ≈ are worked out from the molar mass of the structure shown. Active and inactive are the calls of the source. No cut-off for these calls is given here.

Legend:
[1] = (§1) Cytotoxicity against human Hep3B cells by MTT assay; format: functional, Hep 3B2; details: read-out: ED50 (the source's name)
[2] = system: A549; experiment: Cytotoxicity against human A549 cells by MTT assay; format: functional; details: for EC50: read-out: ED50 (the source's name)
[3] = system: MCF7; experiment: Cytotoxicity against human MCF7 cells by MTT assay; format: functional; details: for EC50: read-out: ED50 (the source's name)
[4] = system: HT-29; experiment: Cytotoxicity against human HT-29 cells by MTT assay; format: functional; details: for EC50: read-out: ED50 (the source's name)
[5] = system: Hep 3B2; experiment: as §1; format: functional

In the case of `O=c1[nH]cc(F)c(=O)[nH]1` [FLUOROURACIL], the EC50 [1] is reported as 0.6 µg/mL (≈ 4.61 µM), the EC50 [2] is reported as 0.4 µg/mL (≈ 3.08 µM) and the EC50 [3] is reported as 0.2 µg/mL (≈ 1.54 µM). The EC50 [4] was 0.2 µg/mL (≈ 1.54 µM).
With `C=C(C)C1Cc2c(oc3cc(O)cc(O)c3c2=O)-c2c(O)c3c(c(O)c21)OC(C)(C)C=C3` (stereo not given) [ARTELASTOXANTHONE] the EC50 [1] was 3.2 µg/mL (≈ 7.37 µM), the EC50 [2] was 10 µg/mL (≈ 23 µM) and the EC50 [3] was 3.1 µg/mL (≈ 7.14 µM). The EC50 [4] was 3.9 µg/mL (≈ 8.98 µM).
For `CC(C)=CCC/C(C)=C/Cc1c2c(c3oc4c(c(=O)c3c1O)CC1c3c(c(O)cc(O)c3-4)OC1(C)C)C=CC(C)(C)O2` (stereo not given), the Activity [5] was “inactive”, the Activity [2] was “inactive” and the Activity [3] was “inactive”. The Activity [4] was “inactive”.
For `CC(C)=CCc1c2c(c(O)c3c(=O)c(C(O)C=C(C)C)c(-c4cc(O)c(O)cc4O)oc13)C=CC(C)(C)O2` (stereo not given), the Activity [5] was “inactive”, the Activity [2] was “inactive” and the Activity [3] was “inactive”. For the same molecule, the Activity [4] was “inactive”.
With `COc1cc(O)c2c3c1-c1oc4c(/C=C(\O)C(C)(C)O)c(O)cc(O)c4c(=O)c1C[C@@H]3C(C)(C)O2` the Activity [5] was “inactive”, the Activity [2] was “inactive” and the Activity [3] was “inactive”. The Activity [4] was “inactive”.
In the case of `CC(=O)C1c2oc3c4c(cc(O)c3c(=O)c2CC2C1C(=O)OC2(C)C)OC(C)(C)C=C4` (stereo not given), the Activity [5] is reported as “inactive”, the Activity [2] is reported as “inactive” and the Activity [3] is reported as “inactive”. The Activity [4] was “inactive”.
`C=C(C)C1CC(=O)c2oc3c4c(cc(O)c3c(=O)c2C1)OC(C)(C)C=C4` (stereo not given) [ARTONOL A] gave an EC50 [1] of 21.9 µg/mL (≈ 62.1 µM), an EC50 [2] of 1.1 µg/mL (≈ 3.12 µM) and an EC50 [3] of 2.7 µg/mL (≈ 7.66 µM). It also gave an EC50 [4] of 3.1 µg/mL (≈ 8.8 µM).
In the case of `CC1(C)C=Cc2c(cc(O)c3c(=O)c4c(oc23)-c2c(O)cc(O)c3c2C(C4)C(C)(C)O3)O1` (stereo not given), the Activity [5] is reported as “inactive”, the Activity [2] is reported as “inactive” and the Activity [3] is reported as “inactive”. The Activity [4] was “inactive”.
For `C=C(C)C1Cc2c(oc3c(CC=C(C)C)c4c(c(O)c3c2=O)C=CC(C)(C)O4)-c2c(O)cc(O)c(O)c21` (stereo not given), the Activity [5] was “inactive”, the Activity [2] was “inactive” and the Activity [3] was “inactive”. For the same molecule, the Activity [4] was “inactive”.
In the case of `COc1cc(O)c(-c2oc3c(CC=C(C)C)c(O)cc(O)c3c(=O)c2C(O)C=C(C)C)cc1O` (stereo not given), the Activity [5] is reported as “inactive”, the Activity [2] is reported as “inactive” and the Activity [3] is reported as “inactive”. The Activity [4] was “inactive”.
